From patent US20110098223A1, “USE OF THE PAT NANOPEPTIDE IN THE TREATMENT OF AUTOIMMUNE DISEASES” (priority 2008, published 2011)

System: Rats of OFA (SD) strain
Test: Arthritis induced by Freund's adjuvant (Mycobacterium butyricum) in the rat
Type: in vivo
Description: We used the model of arthritis induced by Freund' adjuvant as described in the article of Milan et al., J Neurosci 1986; 6: 899-906. The rats are administered with Mycobacterium butyricum develop usually a severe polyarthritis which resembles to that in human. Rats of OFA (SD) strain (Oncins France Strain A) weighing approximately 200 g received an […] of a 10 mg/ml Mycobacterium butyricum solution at the articulation of the right ankle. For all the measured parameters, the rats were divided into 5 groups (8 rats/group) in the following way: • reference group: the rats received a paraffin injection instead of the solution of Mycobacterium butyricum (no induced arthritis) then receive an intraperitoneal injection of saline solution; • arthritic group+injection of saline solution; • arthritic group+intraperitoneal injection of 3 mg/kg indomethacin; the indomethacin being a NSAID classically used as reference in this kind of test; • arthritic group+intraperitoneal injection of […]; • arthritic group+intraperitoneal injection of […]. The products are administered 5 times per week during 3 weeks. At the beginning of the experimentation (day 0), one determines the initial values for the different parameters (volume of the leg, macroscopic clinical score, sedimentation test and hypersensitivity). During the experiment, several parameters are measured: • the volume of the leg (“paw latency duration”); • the globular sedimentation test (“Erythrocyte Sedimentation rate”); • the macroscopic score: • “0” means that no sign of arthritis was detected; • “1” means that a swelling or an inflammation was detected on a leg; • “2” means that a swelling or an inflammation was detected on two legs; • “3” means that a swelling or an inflammation was detected on at lest 3 legs; • “4” means that a swelling or an inflammation was detected on the 4 legs. • hypersensitivity according to the plantar test: carried out according to Yukinori Nagakura and al, Allodynia and hyperalgesia in adjuvant-induced arthritic rats: time course of progression and efficacy of analgesics, JPET 306: 490-497, 2003, or in Andersen M L and al “Evaluation of acute and chronic treatments with Harpagophytum procumbens one Freund's adjuvant-induced arthritis in rats”. J. Ethnopharmacol. 2004 April; 91 (2-3): 325-30; • the erythrocyte sedimentation rate (ESR): the increase in this one generally accompanies the clinical symptoms met in induced arthritis. The ESR is measured in the arthritic rats (at Day 21) 1 hour and 2 hours after the injection of PAT or indomethacin, according to the protocol of Mahajan S G, et al., Protective Effect of Ethanolic Extract of Seeds of Moringa will oleifera Lam. Against Inflammation Associated with Development of Arthritis in Rats. J. Immunotoxicol. 2007 January; 4 (1): 39-47.

With `COc1ccc2c(c1)c(CC(=O)O)c(C)n2C(=O)c1ccc(Cl)cc1` [indomethacin] the “hypersensitivity measured by the plantar test” value (Day 16, PAT at the 2 doses, indomethacin, equivalent to the non-arthritic reference group, FIG. 6) was “very reduced”, the “erythrocyte sedimentation rate (ESR)” value (arthritic rats, Day 21, FIG. 7) was “reduced in a very important way” and the clinical macroscopic score (compared to arthritic rats which received saline solution, until Day 21, FIG. 5) was “significant reduction”. For the same compound, the “volume of the leg” value (during the first 12 days, PAT 0.4 and 4 μg/kg i.p., indomethacin 3 mg/kg i.p., 5 times per week, FIG. 4) was “do not have a notable effect” and the “inflammation and volume of the leg” value (from Day 14 until Day 21, PAT 0.4 and 4 μg/kg i.p., indomethacin 3 mg/kg i.p., FIG. 4) was “notable reduction”.
